Assay results reported in ChEMBL document CHEMBL1134302, “Cheminformatic models to predict binding affinities to human serum albumin” (J Med Chem, 2001).

Molecular target: Albumin (Homo sapiens, UniProt P02768)
Assay: Binding constant against human serum albumin (HSA)

Sequence of Albumin (P02768 whole entry): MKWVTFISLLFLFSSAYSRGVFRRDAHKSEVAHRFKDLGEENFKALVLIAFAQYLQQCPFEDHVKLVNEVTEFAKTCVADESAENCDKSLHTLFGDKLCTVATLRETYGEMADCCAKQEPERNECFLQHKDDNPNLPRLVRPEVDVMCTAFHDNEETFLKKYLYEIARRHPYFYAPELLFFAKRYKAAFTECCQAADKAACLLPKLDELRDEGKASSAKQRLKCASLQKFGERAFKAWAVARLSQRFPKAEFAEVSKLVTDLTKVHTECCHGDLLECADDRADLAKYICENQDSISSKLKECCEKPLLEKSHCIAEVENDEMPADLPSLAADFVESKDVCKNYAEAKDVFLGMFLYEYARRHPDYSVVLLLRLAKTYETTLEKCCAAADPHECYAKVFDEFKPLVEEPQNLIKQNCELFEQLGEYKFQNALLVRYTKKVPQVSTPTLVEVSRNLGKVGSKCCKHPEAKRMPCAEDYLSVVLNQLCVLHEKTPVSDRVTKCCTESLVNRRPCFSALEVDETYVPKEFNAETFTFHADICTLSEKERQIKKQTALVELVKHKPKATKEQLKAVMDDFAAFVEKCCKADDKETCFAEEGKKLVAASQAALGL

SMILES | Log K'
C=CCc1ccccc1OCC(O)CNC(C)C (centres undefined) [ALPRENOLOL] | 0.04
CO[C@@H]1[C@@H](OC(N)=O)[C@@H](O)[C@H](Oc2ccc3c(O)c(NC(=O)c4ccc(O)c(CC=C(C)C)c4)c(=O)oc3c2C)OC1(C)C [NOVOBIOCIN] | 0.35
CC(C)NCC(O)c1ccc(NS(C)(=O)=O)cc1 (centres undefined) [SOTALOL] | 0.44
CCCC(=O)Nc1ccc(OCC(O)CNC(C)C)c(C(C)=O)c1 (centres undefined) [ACEBUTOLOL] | 0.21
Cc1nccn1CC1CCc2c(c3ccccc3n2C)C1=O (centres undefined) [ONDANSETRON] | 0.37
CC(C)NCC(O)COc1cccc2[nH]ccc12 (centres undefined) [PINDOLOL] | 0.13
CC1(C)S[C@@H]2[C@H](NC(=O)COc3ccccc3)C(=O)N2[C@H]1C(=O)O [PENICILLIN V] | 0.69
Nc1ccc(S(=O)(=O)Nc2ccnn2-c2ccccc2)cc1 [SULFAPHENAZOLE] | 0.21
CN(C)c1cccc2c(S(=O)(=O)NCC(=O)O)cccc12 [DANSYLGLYCINE] | -0.26
Nc1nnc(-c2cccc(Cl)c2Cl)c(N)n1 [LAMOTRIGINE] | 0.13
Nc1nc(=O)[nH]cc1F [FLUCYTOSINE] | 1.11
CC(=O)N1CCN(c2ccc(OC[C@H]3CO[C@](Cn4ccnc4)(c4ccc(Cl)cc4Cl)O3)cc2)CC1 [KETOCONAZOLE] | 0.84
CN(C)CCCN1c2ccccc2Sc2ccc(C(F)(F)F)cc21 [TRIFLUPROMAZINE] | 1.05
CC(=O)O[C@H]1C[C@@]2(C)[C@@H](C[C@@H](O)[C@H]3[C@@]4(C)CC[C@@H](O)[C@@H](C)[C@@H]4CC[C@@]32C)/C1=C(\CCC=C(C)C)C(=O)O [FUSIDIC ACID] | 0.33
C[C@]12CC[C@@H]3c4ccc(O)cc4CC[C@H]3[C@@H]1CC[C@@H]2O [ESTRADIOL] | 0.68
CC[C@@]1(O)C(=O)OCc2c1cc1n(c2=O)Cc2cc3ccccc3nc2-1 [CAMPTOTHECIN] | 0.08
C[C@]12C=CC(=O)C=C1CC[C@@H]1[C@@H]2[C@@H](O)C[C@@]2(C)[C@H]1CC[C@]2(O)C(=O)CO [PREDNISOLONE] | 0.4
CC(=O)[C@H]1CC[C@H]2[C@@H]3CCC4=CC(=O)CC[C@]4(C)[C@H]3CC[C@]12C [PROGESTERONE] | 0.59
CC(CCc1ccccc1)NCC(O)c1ccc(O)c(C(N)=O)c1 (centres undefined) [LABETALOL] | 0.14
C[C@H]1O[C@@H](O[C@H]2[C@@H](O)C[C@H](O[C@H]3[C@@H](O)C[C@H](O[C@H]4CC[C@@]5(C)[C@H](CC[C@@H]6[C@@H]5CC[C@]5(C)[C@@H](C7=CC(=O)OC7)CC[C@]65O)C4)O[C@@H]3C)O[C@@H]2C)C[C@H](O)[C@@H]1O [DIGITOXIN] | 0.13
COc1cc(Cc2cnc(N)nc2N)cc(OC)c1OC [TRIMETHOPRIM] | 0.26
CN(Cc1cnc2nc(N)nc(N)c2n1)c1ccc(C(=O)N[C@@H](CCC(=O)O)C(=O)O)cc1 [METHOTREXATE] | 0.77
N[C@@H](Cc1c[nH]c2ccccc12)C(=O)O [TRYPTOPHAN] | 0.78
COc1cc2nc(N3CCN(C(=O)C4CCCO4)CC3)nc(N)c2cc1OC (centres undefined) [TERAZOSIN] | 0.16
O=c1c2ccccc2[se]n1-c1ccccc1 [EBSELEN] | 1.04

SMILES | Log K'
Cc1cc(=O)n(-c2ccccc2)n1C [ANTIPYRINE] | 0.69
CN(C)[C@@H]1C(O)=C(C(N)=O)C(=O)[C@@]2(O)C(O)=C3C(=O)c4c(O)cccc4C[C@H]3C[C@@H]12 [SANCYCLINE] | 0.21
CN(C)c1ccc(O)c2c1C[C@H]1C[C@H]3[C@H](N(C)C)C(O)=C(C(N)=O)C(=O)[C@@]3(O)C(O)=C1C2=O [MINOCYCLINE] | 0.21
CCCNC(=O)NS(=O)(=O)c1ccc(Cl)cc1 [CHLORPROPAMIDE] | 0.44
CC(C)(C)NC[C@H](O)COc1nsnc1N1CCOCC1 [TIMOLOL] | 0.33
CO/N=C(\C(=O)N[C@@H]1C(=O)N2C(C(=O)O)=C(COC(N)=O)CS[C@H]12)c1ccco1 [CEFUROXIME] | 1.33
C=C[C@H]1C[N@@]2CC[C@H]1C[C@H]2[C@H](O)c1ccnc2ccc(OC)cc12 [QUININE] | 0.49
CN(C)CCCN1c2ccccc2CCc2ccccc21 [IMIPRAMINE] | 0.75
COc1cc2nc(N3CCN(C(=O)c4ccco4)CC3)nc(N)c2cc1OC [PRAZOSIN] | 0.06
C=CCOc1ccccc1OCC(O)CNC(C)C (centres undefined) [OXPRENOLOL] | 0.15
CN(C)[C@@H]1C(O)=C(C(N)=O)C(=O)[C@@]2(O)C(O)=C3C(=O)c4c(O)cccc4[C@@](C)(O)[C@H]3C[C@@H]12 [TETRACYCLINE] | 0.08
C[C@]12CC[C@H]3[C@@H](CCC4=CC(=O)CC[C@@]43C)[C@@H]1CC[C@@H]2O [TESTOSTERONE] | 0.74
C[C@H](CS)C(=O)N1CCC[C@H]1C(=O)O [CAPTOPRIL] | 2.69
CCn1cc(C(=O)O)c(=O)c2cc(F)c(N3CCNCC3)cc21 [NORFLOXACIN] | 0.14
CN(C)CCCN1c2ccccc2Sc2ccccc21 [PROMAZINE] | 0.92
Clc1ccccc1C(c1ccccc1)(c1ccccc1)n1ccnc1 [CLOTRIMAZOLE] | 1.34
Cc1ccc(/C(=C\CN2CCCC2)c2cccc(/C=C/C(=O)O)n2)cc1 [ACRIVASTINE] | 0.02
Cc1ccc(S(=O)(=O)NC(=O)NN2CCCCCC2)cc1 [TOLAZAMIDE] | 0.42
NS(=O)(=O)c1cc2c(cc1Cl)NCNS2(=O)=O [HYDROCHLOROTHIAZIDE] | 0.42
CCCCNc1ccc(C(=O)OCCN(C)C)cc1 [TETRACAINE] | 0.32
CC(=O)Nc1ccc(O)cc1 [ACETAMINOPHEN] | 0.81
CNC(=C[N+](=O)[O-])NCCSCc1ccc(CN(C)C)o1 [RANITIDINE] | 0.1
CCCCC1C(=O)N(c2ccccc2)N(c2ccc(O)cc2)C1=O (centres undefined) [OXYPHENBUTAZONE ANHYDROUS] | 0.02
C=C[C@H]1C[N@@]2CC[C@H]1C[C@@H]2[C@@H](O)c1ccnc2ccc(OC)cc12 [QUINIDINE] | 0.44
CN(C/C=C/C#CC(C)(C)C)Cc1cccc2ccccc12 [TERBINAFINE] | 1.17

SMILES | Log K'
CNS(=O)(=O)Cc1ccc2[nH]cc(CCN(C)C)c2c1 | 0.05
CNCCCN1c2ccccc2CCc2ccccc21 [DESIPRAMINE] | 0.61
C[C@]12CCC(=O)C=C1CC[C@@H]1[C@@H]2[C@@H](O)C[C@@]2(C)[C@H]1CC[C@]2(O)C(=O)CO [HYDROCORTISONE] | 0.4
CC(NC(C)(C)C)C(=O)c1cccc(Cl)c1 (centres undefined) [BUPROPION] | 0.05
C[C@H]1C[C@@H]2[C@H]([C@@H](O)C[C@@]3(C)[C@H]2CC[C@]3(O)C(=O)CO)[C@@]2(C)C=CC(=O)C=C12 [METHYLPREDNISOLONE] | 0.22
CO/N=C(\C(=O)N[C@@H]1C(=O)N2C(C(=O)OC(C)OC(C)=O)=C(COC(N)=O)CS[C@H]12)c1ccco1 (some centres undefined) [CEFUROXIME AXETIL] | 0.56
O=C(N[C@H](CO)[C@H](O)c1ccc([N+](=O)[O-])cc1)C(Cl)Cl [CHLORAMPHENICOL] | 0.46
CCOC(=O)C(C)(C)Oc1ccc(Cl)cc1 [CLOFIBRATE] | 0.27
CCCCNc1cc(C(=O)O)cc(S(N)(=O)=O)c1Oc1ccccc1 [BUMETANIDE] | 0.03
Cn1c(=O)c2c(ncn2C)n(C)c1=O [CAFFEINE] | 0.92
COc1ccc(Cl)cc1C(=O)NCCc1ccc(S(=O)(=O)NC(=O)NC2CCCCC2)cc1 [GLYBURIDE] | 0.68
CC(=O)Oc1ccccc1C(=O)O [ASPIRIN] | 1.39
CC1(C)S[C@@H]2[C@H](NC(=O)[C@H](N)c3ccc(O)cc3)C(=O)N2[C@H]1C(=O)O [AMOXICILLIN] | 1.21
COCCc1ccc(OCC(O)CNC(C)C)cc1 (centres undefined) [METOPROLOL] | 0.29
C[C@H]1c2cccc(O)c2C(=O)C2=C(O)[C@]3(O)C(=O)C(C(N)=O)=C(O)[C@@H](N(C)C)[C@@H]3[C@@H](O)[C@@H]21.O [DOXYCYCLINE] | 0.01
CC(C)NCC(O)COc1cccc2ccccc12 (centres undefined) [PROPRANOLOL] | 0.28
CCC(C)n1ncn(-c2ccc(N3CCN(c4ccc(OC[C@H]5CO[C@](Cn6cncn6)(c6ccc(Cl)cc6Cl)O5)cc4)CC3)cc2)c1=O (some centres undefined) [ITRACONAZOLE] | 1.04
CCN(CC)CCOC(=O)c1ccc(N)cc1 [PROCAINE] | 0.19
CN/C(=N/CCSCc1nc[nH]c1C)NC#N [CIMETIDINE] | 0.44
C[C@H]1COc2c(N3CCN(C)CC3)c(F)cc3c(=O)c(C(=O)O)cn1c23.C[C@H]1COc2c(N3CCN(C)CC3)c(F)cc3c(=O)c(C(=O)O)cn1c23.O [LEVOFLOXACIN] | 0.14
Clc1cccc(Cl)c1N=C1NCCN1 [CLONIDINE] | 0.13
O=C(O)c1cc(=O)c2c(OCC(O)COc3cccc4oc(C(=O)O)cc(=O)c34)cccc2o1 [CROMOLYN] | 1.07
CC(C)(C)NCC(O)COc1cccc2c1CC(O)C(O)C2 (centres undefined) [NADOLOL] | 0.4
O=C(CCCN1CC=C(n2c(=O)[nH]c3ccccc32)CC1)c1ccc(F)cc1 [DROPERIDOL] | 0.43
